Source: PubChem BioAssay (NCI)
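Five compound concentrations were applied to cells in 96-well plates for 48 hours; endpoints were derived by simple linear interpolation of the resulting dose-response curve. The concentration for full growth arrest is given as TGI.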

Columns and labels:
Assay in all cases: growth of human tumour cells (NCI), 48 h
786-0 renal = tested on: 786-0 renal
ACHN renal = tested on: ACHN renal
CAKI-1 renal = tested on: CAKI-1 renal
CCRF-CEM leukemia = tested on: CCRF-CEM leukemia
DU-145 prostate = tested on: DU-145 prostate
EKVX NSCLC = tested on: EKVX NSCLC
HCC-2998 colon = tested on: HCC-2998 colon
HCT-116 colon = tested on: HCT-116 colon
HCT-15 colon = tested on: HCT-15 colon
HL-60(TB) leukemia = tested on: HL-60(TB) leukemia
HOP-62 NSCLC = tested on: HOP-62 NSCLC
HT29 colon = tested on: HT29 colon
IGROV1 ovarian = tested on: IGROV1 ovarian
K-562 leukemia = tested on: K-562 leukemia
KM12 colon = tested on: KM12 colon
LOX IMVI melanoma = tested on: LOX IMVI melanoma
M14 melanoma = tested on: M14 melanoma
MALME-3M melanoma = tested on: MALME-3M melanoma
MCF7 breast = tested on: MCF7 breast
MDA-MB-231 breast = tested on: MDA-MB-231 breast
MDA-MB-435 = tested on: MDA-MB-435
MDA-N = tested on: MDA-N
MOLT-4 leukemia = tested on: MOLT-4 leukemia
NCI-H226 lung = tested on: NCI-H226 lung
NCI-H23 lung = tested on: NCI-H23 lung
NCI-H460 lung = tested on: NCI-H460 lung
NCI-H522 lung = tested on: NCI-H522 lung
NCI/ADR-RES ovarian = tested on: NCI/ADR-RES ovarian
OVCAR-3 ovarian = tested on: OVCAR-3 ovarian
OVCAR-4 ovarian = tested on: OVCAR-4 ovarian
OVCAR-5 ovarian = tested on: OVCAR-5 ovarian
OVCAR-8 ovarian = tested on: OVCAR-8 ovarian
PC-3 prostate = tested on: PC-3 prostate
RPMI-8226 leukemia = tested on: RPMI-8226 leukemia
SF-268 CNS = tested on: SF-268 CNS
SF-539 CNS = tested on: SF-539 CNS
SK-MEL-2 melanoma = tested on: SK-MEL-2 melanoma
SK-MEL-28 melanoma = tested on: SK-MEL-28 melanoma
SK-MEL-5 melanoma = tested on: SK-MEL-5 melanoma
SK-OV-3 ovarian = tested on: SK-OV-3 ovarian
SN12C renal = tested on: SN12C renal
SNB-19 CNS = tested on: SNB-19 CNS
SNB-75 CNS = tested on: SNB-75 CNS
SR leukemia = tested on: SR leukemia
SW-620 colon = tested on: SW-620 colon
T-47D breast = tested on: T-47D breast
TK-10 renal = tested on: TK-10 renal
U251 CNS = tested on: U251 CNS
UACC-257 melanoma = tested on: UACC-257 melanoma
UACC-62 melanoma = tested on: UACC-62 melanoma
UO-31 renal = tested on: UO-31 renal
A498 renal = tested on: A498 renal
A549 NSCLC = tested on: A549 NSCLC
COLO 205 colon = tested on: COLO 205 colon
HOP-92 NSCLC = tested on: HOP-92 NSCLC
RXF 393 renal = tested on: RXF 393 renal
SF-295 CNS = tested on: SF-295 CNS

Measured: TGI

N#CCCC1(CCC#N)CCc2ccccc2C1=O
not listed: A498 renal | A549 NSCLC | COLO 205 colon | HOP-92 NSCLC | RXF 393 renal | SF-295 CNS
> 100 µM: all other assays above

C=C(C)/C=C/C(O)[C@](C)(O)[C@H]1[C@H](O)C[C@@]2(C)[C@@H]3CCc4c(cc(OC5OC(CO)C(O)C(O)C5O)c(O)c4C)C3(C)C(=O)C[C@]12C (stereo partly specified)
not listed: HL-60(TB) leukemia | RPMI-8226 leukemia
> 100 µM: all other assays above
